In patent EP0168309A1, “Isoxazoloquinolinone derivatives, process and intermediates for their preparation, use as medicaments and compositions containing them” (ROUSSEL-UCLAF, priority 1984, dated 1986) one finds DL0, IC50 and ED50 data, which are given here for six molecules.

One data set relates to souris. Nature of the data set: Acute toxicity, oral administration in mice (DL0). Format: in vivo. To be noted: maximal dose causing no mortality in 8 days, mouse. The text has this:
On a évalué les doses létales DLO des différents composés testés après administration par voie orale chez la souris.
On appelle DLO la dose maximale ne provoquant aucune mortalité en 8 jours.

Data set [1] deals with récepteurs des benzodiazépines. Nature of the data set: Affinity for benzodiazepine receptors (3H diazepam binding, rat cortex membranes). The conditions noted are these: concentration inhibiting 50 % of specific binding of 3H diazepam (10^-9M), 30 minutes at 0°C, read-out: C. I. 50 (the source's name). Set-up: species or system rats. The procedure: La technique est inspirée de celle de Möhler et Okada : Science, Vol 198 p.849-851 (1977).
On homogénéise au vingtième (poids/volume) dans le sucrose 0,32 M, les cortex prélevés sur des cerveaux de rats mâles pesant 150 g en moyenne. Après centrifugation de l'homogénat à 1000 g pendant 10 minutes à 0°C, le surnageant est centrifugé à 30 000 g pendant 20 minutes à 4°C. Le culot est mis en suspension dans 20 volumes de tampon Tris HCl 50mM pH 7,4 et centrigué à 30 000 g pendant 20 minutes à 4°C. Le nouveau culot obtenu est mis en suspension dans 50 ml de tampon Krebs Tris HCl pH 7,4.
On fait ensuite incuber pendant 30 minutes à 0°C, 2 ml de suspension en présence de 3H diazepam à la concentration 10^-9M : • i) seule, • ii) avec des concentrations croissantes du produit à tester ou, • iii) pour déterminer la fixation non spécifique, avec du diazepam non radioactif à la concentration 10^-6M.
Les suspensions incubées sont filtrées sur Whatman GF/C et les filtres sont lavés par deux fois 5 ml de tampon Krebs Tris HCl pH 7,4 à 0°C.
La radioactivité des filtres est mesurées par scintillation liquide.
L'activité du produit est exprimée en C. I. 50 : concentration inhibant 50 % de la liaison spécifique de ^3H diazepam.

Data set [2] concerns taux sérique de corticostérone. The data set is described as follows: Action on serum corticosterone level after noise stress. Format: in vivo. To be noted: Rattus norvegicus; dose reducing by 50% the increase of serum corticosterone; oral route, 1 hour before stress; rats; read-out: DE50 (the source's name). The text has this:
Des lots de 5 rats sont constitués la veille de l'essai et placés dans un pièce au calme. Les composés sont administrés par voie orale le lendemain entre 8 et 9 heures du matin. Une heure après, le stress est appliqué : il consiste à changer les animaux de cage, à les placer dans une pièce où un poste de radio fonctionne bruyamment (90 décibels), puis 1/2 heure plus tard, à leur faire une piqûre intrapéritonéale sans injection. Dix minutes après celle-ci, les rats sont anesthésiés a l'halothane et des échantillons de sang sont prélevés par décapitation. Les taux de corticostérone sérique sont alors déterminés.
Les résultats sont exprimés en DE50, c'est-à-dire en dose de composé testé qui réduit de 50% l'augmentation du taux de corticostérone sérique chez les animaux traités par rapport aux animaux témoins.

Turning to `O=c1c2cnc3ccccc3c2on1-c1ccccc1` [Exemple 1, 2-phényl isoxazolo (4,5-c) quinoléin-3 (2H) one], the DL0 in the data set with souris is on record as ≥ 400 mg/kg. Also, the IC50 in data set [1] was found to be 120 nM.

For the molecule `O=c1c2cnc3ccc(F)cc3c2on1-c1ccccc1` [Exemple 2, 8-fluoro 2-phénylisoxazolo (4,5-c) quinoléin-3-(2H)-one], in the data set on souris, the DL0 is listed as ≥ 400 mg/kg. In data set [2], the ED50 was < 50 mg/kg. For the same molecule, the IC50 in data set [1] is 400 nM.

On to `COc1ccc2c(c1)ncc1c(=O)n(-c3ccccc3)oc12` [Exemple 3, 7-méthoxy 2-phénylisoxazolo (4,5-c) quinoléin-3-(2H)-one], for which the DL0 with souris is ≥ 200 mg/kg.

Molecule `COc1ccc2ncc3c(=O)n(-c4ccccc4)oc3c2c1` [Exemple 4, 8-méthoxy 2-phényl isoxazolo (4,5-c) quinoléin-3-(2H)-one] showed a DL0 in the data set with souris of 200 mg/kg. Besides, in data set [2], the ED50 is < 100 mg/kg. Moreover, in data set [1], the IC50 amounted to 2460 nM.

`O=c1c2cnc3ccc(C(F)(F)F)cc3c2on1-c1ccccc1` [Exemple 5, 8-trifluorométhyl 2-phényl isoxazolo (4,5-c) quinoléin-3-(2H)-one]: the DL0 in the data set with souris was ≥ 200 mg/kg.

`O=c1c2cnc3ccc(Cl)cc3c2on1-c1ccccc1` [Exemple 7, 8-chloro 2-phényl isoxazolo (4,5-c) quinoléin-3-(2H)-one]: the DL0 in the data set with souris was ≥ 100 mg/kg.
